Assay results: US20120276122A1, “METHODS FOR DIAGNOSIS AND TREATMENT OF CELLULAR PROLIFERATIVE DISORDERS” (Sanford-Burnham Medical Research Institute, priority 2010, published 2012)
Each block holds one compound with its values, some of them ahead of it.

Key:
ATF2 = details: cited from earlier work; for ATF2 nuclear exclusion: melanoma cells
melanoma = details: syngeneic mice, human melanoma xenografts; cited from earlier work
melanoma cells = melanoma cells versus melanocytes; cited from earlier work
SCC9 cells [1] = assay: HK1 co-localization with mitochondria (immunostaining and MitoTracker); assay type: cell-based; details: SCC9, 5 μM etoposide overnight
Text: The arrowheads indicate HA-positive cells. Scale bars represent 10 μm.

SCC9 cells [2] = assay: ATF2 mitochondrial localization, immunofluorescent staining of coverslip-grown cells; assay type: cell-based; details: for cells with ATF2 accumulation at the mitochondria: SCC9, 5 μM etoposide overnight, 3 replicate coverslips
Protocol: FIG. 1A) is an image depicting control, 5 μM etoposide-treated (ETO, overnight treatment), UVC-treated (20 J/m^2), ionizing radiation-treated (IR, 5Gy), or 40 ng/ml leptomycin B (LMB) and ETO co-treated SCC9 cells grown on coverslips were immunofluorescently stained for HSP60,ATF2 or DNA. Immunostained control and ETO panels represent 89±4% and 64±11%, respectively, of the cells from 3 independent replicate coverslips per condition (n>100 cells counted per replicate). […] C) is a photograph depicting coverslip-grown SCC9 cells that were co-treated with 40 ng/ml leptomycin B (LMB) and ETO overnight, and were subsequently fixed and immunofluorescently stained as indicated. D) is a gel depicting SCC9 cells transfected with the Jun2 promoter-luciferase construct and assayed for luciferase activity prior to (Control) or after ETO treatment. E) is a bar graph depicting luciferase activity of mitochondria (M) purified from ETO-treated SCC9 cells subject to proteolysis protection assay with titrated concentrations of trypsin: 0.2 (1), 0.1 (2), 0.05 (3), 0.025 (4), or 0.0125 (5) μg in the absence or presence of 1% Triton X-100 (TX) detergent. Scale bars represent 10 μm.
Following indicated treatments, coverslip-grown cells were fixed in fixation buffer containing 4% formaldehyde and 2% sucrose in phosphate buffered saline (PBS) for 20 minutes at room temperature. After fixation, coverslips were rinsed twice in PBS and permeabilized in permeabilization buffer (0.4% Triton X-100 (TX-100)/0.4% bovine serum albumin (BSA) in PBS) for 20 minutes. Primary antibodies were applied at 1:250 dilution in staining buffer (0.1% TX-100/0.1% BSA in PBS) overnight at 4° C. in a humid chamber. Coverslips were subsequently subject to 5 standing washes in wash buffer (0.2% TX-100/0.2% BSA in PBS, 5 minutes per wash). Secondary antibodies (Alexa Fluor secondary 350, 488 or 568, Invitrogen) were applied at 1:250 dilution in staining buffer for 2-3 hours at room temperature in a humid chamber in the dark. Prior to mounting with Vectorshield containing DAPI (Vector Laboratories, CA), coverslips were washed twice additionally in wash buffer. Immunofluorescent analysis was conducted on an Olympus TH4-100 fluorescent microscope. At least 3 Z-planes per field were captured and analyzed using Slidebook V.4.1, and Z-projection images of average intensity were constructed using ImageJ V.1.43u.

ATF2 pT52 = assay: Immunoblot densitometry of pT52/Total ATF2; assay type: cell-based; details: SCC9, etoposide treatment
Text: B) Control or ATF2 -knocked down LU1205 cells were subject to immunoblot analysis with indicated antibodies. […] D) is an image showing control or ETO-treated coverslip-grown LU1205, 501Mel or UACC903 cells immunofluorescently stained with indicated antibodies.

PKCε pS729 = assay: Immunoblot of pS729 PKCε (active PKCε); assay type: cell-based; details: SCC9, 5 μM overnight
SCC9 cells [3] = assay: Annexin-V / propidium iodide staining and FACS analysis (cell death); assay type: cell-based; details: SCC9, 5 μM, overnight, representative FACS plot
Protocol: Cells were stained with Annexin-V and subject to FACS analysis. n=10,000 cells per replicate; 3 replicates per condition were performed. •: p=0.0001; #: p<0.0001.
For FACS analyses, n=10,000 cells per replicate over 3 independent replicates.

Jun2 promoter = assay: Jun2 promoter-luciferase assay (ATF2 transcriptional activity); assay type: cell-based; details: for Jun2-luciferase activity: SCC9
Protocol: C) is a photograph depicting coverslip-grown SCC9 cells that were co-treated with 40 ng/ml leptomycin B (LMB) and ETO overnight, and were subsequently fixed and immunofluorescently stained as indicated. D) is a gel depicting SCC9 cells transfected with the Jun2 promoter-luciferase construct and assayed for luciferase activity prior to (Control) or after ETO treatment. E) is a bar graph depicting luciferase activity of mitochondria (M) purified from ETO-treated SCC9 cells subject to proteolysis protection assay with titrated concentrations of trypsin: 0.2 (1), 0.1 (2), 0.05 (3), 0.025 (4), or 0.0125 (5) μg in the absence or presence of 1% Triton X-100 (TX) detergent. Scale bars represent 10 μm.
FIG. 3A) is an image depicting coverslip-grown SCC9 cells treated with 1 or 5 μM PKCε translocation inhibitor overnight, and immunofluorescently stained with indicated antibodies. B) is a photograph depicting coverslip-grown SCC9 cells treated with 10 nM siRNA targeting PKCε overnight were immunofluorescently stained with indicated antibodies. […] F) is a photograph depicting coverslip-grown SCC9 cells were transfected with HA-tagged wildtype ATF2 (WT), ATF2T52A or ATF2T52E, and subsequently immunofluorescently stained with indicated antibodies. G-H) is a series of bar graphs that show quantitation of (Left) SCC9 cells transfected with Jun2 promoter-luciferase construct and empty vector (EV) or caPKCε, assayed for luciferase activity after ETO treatment. (Right) SCC9 cells stably knocked down for ATF2 with a 3′-UTR-targeted shRNA, reconstituted with Jun2 promoter-luciferase construct and ATF2 (WT), ATF2T52A or ATF2T52E and subsequently assayed for luciferase activity. Scale bars represent 10 μm.

PKCε = molecular target: T1, PKCε (Homo sapiens, UniProt Q02156); assay: In vitro kinase assay, PKCε phosphorylation of GST-tagged ATF2 50-100 peptide; assay type: biochemical
T1 sequence (Q02156 1-737): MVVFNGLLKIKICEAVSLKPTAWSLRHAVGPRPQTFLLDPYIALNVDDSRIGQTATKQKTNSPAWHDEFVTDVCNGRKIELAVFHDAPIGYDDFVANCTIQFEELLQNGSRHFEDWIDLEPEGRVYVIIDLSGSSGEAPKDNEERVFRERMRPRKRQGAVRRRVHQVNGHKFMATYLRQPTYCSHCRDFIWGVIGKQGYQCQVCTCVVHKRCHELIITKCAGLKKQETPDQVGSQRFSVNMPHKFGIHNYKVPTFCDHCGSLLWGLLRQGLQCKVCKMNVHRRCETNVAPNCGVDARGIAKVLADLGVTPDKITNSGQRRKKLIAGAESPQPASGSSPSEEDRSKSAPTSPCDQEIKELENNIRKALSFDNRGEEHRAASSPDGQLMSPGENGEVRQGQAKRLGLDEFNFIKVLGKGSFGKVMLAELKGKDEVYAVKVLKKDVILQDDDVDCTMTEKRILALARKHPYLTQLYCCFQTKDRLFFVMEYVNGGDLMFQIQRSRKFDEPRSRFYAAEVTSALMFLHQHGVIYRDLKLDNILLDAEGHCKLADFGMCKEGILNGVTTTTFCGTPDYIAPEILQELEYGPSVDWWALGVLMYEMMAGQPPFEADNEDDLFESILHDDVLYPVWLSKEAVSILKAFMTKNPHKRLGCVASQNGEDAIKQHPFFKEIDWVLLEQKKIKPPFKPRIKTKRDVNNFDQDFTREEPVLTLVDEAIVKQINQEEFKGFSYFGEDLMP
Protocol: To determine whether Thr52, the predicted PKCε site for phosphorylation of ATF2, regulates mitochondrial translocation of ATF2, phosphorylation of ATF2 by PKCε in vitro was assessed, as well as the localization of ATF2^T52A (a non-phosphorylatable alanine phosphomutant) and ATF2^T52E (a glutamic acid phosphomimic). […] This phosphorylation is inhibited upon addition of PKCε catalytic inhibitor, Gö6850 (FIG. 3E). […] Collectively, these findings establish that ATF2 mitochondrial localization is regulated by PKCε through phosphorylation at T52.

Compound: ATF2 50-100 peptide: 50 amino acid long peptide derived from ATF2 (amino acids 50-100), contains T52 (EMTLKFGPARNDSVIVADQTPTPTRFLKNCEEVGLFNELASPFENEFKKAS; UniProt P15336 50-100, looked up, fragment)
- ATF2 transcriptional activity (ATF2): inhibit ATF2 transcriptional activity
- ATF2 nuclear exclusion (ATF2): caused nuclear exclusion of ATF2
- melanoma growth (melanoma): inhibit melanoma growth in syngeneic mice
- sensitization to apoptosis (melanoma cells): sensitized melanoma cells (but not melanocytes) to apoptosis

Compound: ATF2 50-60 peptide: 10 amino acid long peptide derived from ATF2 (amino acids 50-60), contains T52 (EMTLKFGPARN; UniProt P15336 50-60, looked up, fragment)
- ATF2 transcriptional activity (ATF2): inhibit ATF2 transcriptional activity
- ATF2 nuclear exclusion (ATF2): caused nuclear exclusion of ATF2
- melanoma growth (melanoma): inhibit melanoma growth in syngeneic mice
- sensitization to apoptosis (melanoma cells): sensitized melanoma cells (but not melanocytes) to apoptosis

Compound: COc1cc([C@@H]2c3cc4c(cc3[C@@H](O[C@@H]3O[C@@H]5CO[C@@H](C)O[C@H]5[C@H](O)[C@H]3O)[C@H]3COC(=O)[C@H]23)OCO4)cc(OC)c1O [etoposide]
- HK1 co-localization with mitochondria (SCC9 cells [1]): enhanced
- cells with ATF2 accumulation at the mitochondria (SCC9 cells [2]): ~64%
- cells with ATF2 accumulation at the mitochondria (SCC9 cells [2]; listed as ETO): 64±11%
- levels of pT52 (ATF2 pT52): lower
- PKCε phosphorylation on Ser729 (PKCε pS729): decreased
- Annexin V-negative (AV−) percentage (SCC9 cells [3]): 89.5%
- Annexin V-positive (AV+) percentage (SCC9 cells [3]): 11.5%
- Jun2-luciferase activity (Jun2 promoter): reduce Jun2-luciferase activity to similar extents as knockdown of ATF2
- reduction of luciferase activity driven by the Jun2 promoter (Jun2 promoter; SCC9, after ETO treatment): ~50%

Compound: CCC(=C/[C@H](C)C/C=C/C(C)=C/[C@@H](C)C(=O)[C@@H](C)[C@H](O)[C@@H](C)C/C(C)=C/C(=O)O)/C=C/[C@@H]1OC(=O)C=C[C@@H]1C [leptomycin B]
- mitochondrial accumulation of ATF2 following etoposide treatment (SCC9 cells [2]; SCC9, 40 ng/ml leptomycin B with ETO): prevented mitochondrial accumulation of ATF2
- ATF2 mitochondrial translocation following inhibition of PKCε (SCC9 cells [2]; SCC9, leptomycin B pre-treatment 40 ng/ml 6 hours, then 5 μM PKCε-i): efficiently blocked

- PKCε phosphorylation of WT ATF2 peptide (PKCε): inhibited
Compound: CN(C)CCCn1cc(C2=C(c3c[nH]c4ccccc34)C(=O)NC2=O)c2ccccc21 [Gö6850]
- Jun2-luciferase activity (Jun2 promoter): reduce Jun2-luciferase activity to similar extents as knockdown of ATF2
